Reference: US8507692B2, “Ester compound and use thereof” (Sumitomo Chemical Company, Limited, priority 2010, dated 2013)

What was measured:
Format in all cases: in vivo
[1] = test system: common mosquitoes (Culex pipens pallens); assay: Test Example 3: oil solution spray knock-down test on common mosquitoes in glass chamber; conditions: 0.025% (w/v) oil solution sprayed into 70 cm cubic glass chamber; adult female common mosquitoes; three minutes after spraying
Experimental: (§1) Zero point zero two five (0.025) part of the compound of the present invention (1) and (13) was dissolved in 10 parts of isopropyl alcohol, and the solution was mixed with 89.975 parts of deodorized kerosene to prepare a 0.025% (w/v) oil solution.
(§2) Ten adult female common mosquitoes (Culex pipens pallens) were released in a cubic glass chamber having each side of 70 cm. The oil solution of the compound of the present invention (1) and (13) was sprayed into the chamber through a small window on the side of the chamber using a spraying gun at a pressure of 0.9 kg/cm^2. Three minutes after spraying, the number of knocked-down mosquitoes was counted and a knock-down ratio was determined. A knocked-down ratio was calculated by the following equation. Knocked-down ratio(%)=(Number of knocked-down mosquitoes/Number of test mosquitoes)×100

[2] = test system: houseflies (Musca domestica); assay: Test Example 4: oil solution spray knock-down test on houseflies in glass chamber; conditions: 0.025% (w/v) oil solution, 0.7 ml sprayed into 70 cm cubic glass chamber; adult houseflies; five minutes after spraying
Experimental: as §1
as §2, with “houseflies (Musca domestica)” for “female common mosquitoes (Culex pipens pallens)”, “cm, and 0.7 ml of the” for “cm. The”, “Five” for “Three”, “flies” for “mosquitoes”, “flies/Number” for “mosquitoes/Number”, “flies)×100” for “mosquitoes)×100”

[3] = test system: American cockroaches (Periplaneta Americana); assay: Test Example 1: oil solution spray knock-down test on American cockroaches; conditions: 0.1% (w/v) oil solution, 1.5 ml sprayed, adult American cockroaches
Experimental: Zero point one (0.1) part of the compound of the present inventions (1) to (6) was dissolved in 10 parts of isopropyl alcohol and the solution was mixed with 89.9 parts of deodorized kerosene to prepare a 0.1% (w/v) oil solution.
(§3) Six adult American cockroaches (Periplaneta Americana, 3 males and 3 females) were released in a test container (diameter 12.5 cm, 10 cm high, the bottom face is made of 16 mesh metallic wire), the inner face on which butter was applied, and the container was set at the bottom of a test chamber (bottom face: 46 cm×46 cm, height: 70 cm). Each 1.5 ml of the oil solution of the compound of the present invention (1) to (6) was sprayed using a spray gun at a pressure of 0.4 kg/cm^2 from 60 cm higher than the upper face of the container. Thirty seconds after the spraying, the container was pulled out from the chamber. After a prescribed time, the number of knocked-down cockroaches was counted and a knock-down ratio was determined (repeated twice). The knocked-down ratio was calculated by the following equation. Knocked-down ratio(%)=(Number of knocked-down cockroaches/Number of test cockroaches)×100
For comparison, the test was conducted in the same manner as the above, except for using 2,5-dioxo-3-(2-propynyl)imidazolidinylmethyl=(1R)-trans-3-(2-methyl-1-propenyl)-2,2-dimethylcyclopropane carboxylate (compound described in Pesticide Science, 10, p. 291 (1979), hereinafter referred to as the comparative compound (1)) represented by the following formula:
[drawing 41] and 2,5-dioxo-3-(2-propynyl)imidazolidinylmethyl=(1R)-cis-3-((Z)-2-cyano-2-methoxyethenyl)-2,2-dimethylcyclopropane carboxylate (compound described in JP-A-60-16962, hereinafter referred to as the comparative compound (2)) represented by the following formula: […]

[4] = test system: American cockroaches (Periplaneta Americana); assay: Test Example 8: oil solution spray knock-down test on American cockroaches, 3 minutes; conditions: 0.1% (w/v) oil solution, 1.5 ml sprayed, adult American cockroaches
Experimental: Zero point one (0.1) part of the compound of the present inventions (1) to (6) and (9) to (12) was dissolved in 10 parts of isopropyl alcohol and the solution was mixed with 89.9 parts of deodorized kerosene to prepare a 0.1% (w/v) oil solution.
as §3, with “(6) and (9) to (12)” for “(6)”, “Three minutes after spraying,” for “After a prescribed time,”

[5] = test system: German cockroaches (Blattella germanica); assay: Test Example 2: oil solution spray knock-down test on German cockroaches; conditions: 0.00625% (w/v) oil solution, 1.5 ml sprayed, adult German cockroaches
Experimental: Zero point zero six two five (0.00625) part of the compound of the present inventions (1) to (6) and (9) to (12) was dissolved in 10 parts of isopropyl alcohol and the solution was mixed with 89.99375 parts of deodorized kerosene to prepare a 0.00625% (w/v) oil solution.
Ten adult German cockroaches (Blattella germanica, 5 males and 5 females) were released in a test container (diameter 8.75 cm, 7.5 cm high, the bottom face is made of 16 mesh metallic wire), the inner face on which butter was applied, and the container was set at the bottom of a test chamber (bottom face: 46 cm×46 cm, height: 70 cm).
Each 1.5 ml of the oil solution of the compound of the present invention (1) to (6) and (9) to (12) was sprayed using a spray gun at a pressure of 0.4 kg/cm^2 from 60 cm higher than the upper face of the container. Thirty seconds after the spraying, the container was pulled out from the chamber. After a prescribed time, the number of knocked-down cockroaches was counted and a knock-down ratio was determined (repeated once). A knocked-down ratio was calculated by the following equation. Knocked-down ratio(%)=(Number of knocked-down cockroaches/Number of test cockroaches)×100 The results (2 minutes after spraying) are shown in Table 2.

[6] = test system: American cockroaches (Periplaneta fuliginosa); assay: Test Example 7: oil solution spray knock-down test on cockroaches (Periplaneta fuliginosa); conditions: 0.1% (w/v) oil solution, 1.5 ml sprayed; adult cockroaches (Periplaneta fuliginosa); one minute after spraying
Experimental: Zero point one (0.1) part of the compound of the present invention (4) was dissolved in 10 parts of isopropyl alcohol and the solution was mixed with 89.9 parts of deodorized kerosene to prepare a 0.1% (w/v) oil solution.
as §3, with “fuliginosa,” for “Americana,”, “One point five (1.5)” for “Each 1.5”, “(4)” for “(1) to (6)”, “One minutes after spraying,” for “After a prescribed time,”, “cockroaches)×100 The knocked-down ratio of the compound of the present invention (4) was 100%.” for “cockroaches)×100”

Compound	Knocked-down ratio [1]	Knocked-down ratio [2]	Knock-down ratio (%) 2 minutes after spraying [3]	Knock-down ratio (%) 3 minutes after spraying [4]	Knock-down ratio (%) 2 minutes after spraying [5]	Knocked-down ratio [6]
C#CCN1CC(=O)N(COC(=O)[C@@H]2[C@@H](C=C(C#N)SC)C2(C)C)C1=O (relative stereo) [compound of the present invention (1), 2,5-dioxo-3-(2-propynyl)imidazolidinylmethyl=(1R)-trans-3-[(1EZ)-2-cyano-2-(methylthio)ethenyl]-2,2-dimethylcyclopropane carboxylate]	100%	100%	100%			
C#CCN1CC(=O)N(COC(=O)[C@@H]2[C@@H](C=C(C#N)SCC)C2(C)C)C1=O (relative stereo) [compound of the present invention (2), 2,5-dioxo-3-(2-propynyl)imidazolidinylmethyl=(1R)-trans-3-[(1EZ)-2-cyano-2-(ethylthio)ethenyl]-2,2-dimethylcyclopropane carboxylate]			100%			
C#CCN1CC(=O)N(COC(=O)[C@@H]2[C@@H](C=C(C#N)SCC)C2(C)C)C1=O (relative stereo) [compound of the present invention (9), 2,5-dioxo-3-(2-propynyl) imidazolidinylmethyl=(1R)-trans-3-[(1EZ)-2-cyano-2-(ethylthio)ethenyl]-2,2-dimethylcyclopropane carboxylate]				100%	100%	
C#CCN1CC(=O)N(COC(=O)[C@@H]2[C@@H](C=C(C#N)SC)C2(C)C)C1=O (relative stereo) [compound of the present invention (10), 2,5-dioxo-3-(2-propynyl)imidazolidinylmethyl=(1R)-trans-3-[(1EZ)-2-cyano-2-(methylthio)ethenyl]-2,2-dimethylcyclopropane carboxylate]				100%	100%	
C#CCN1CC(=O)N(COC(=O)[C@@H]2[C@@H](C=C(C)C)C2(C)C)C1=O [comparative compound (1), 2,5-dioxo-3-(2-propynyl)imidazolidinylmethyl=(1R)-trans-3-(2-methyl-1-propenyl)-2,2-dimethylcyclopropane carboxylate, reference compound]			58%			
C#CCN1CC(=O)N(COC(=O)[C@@H]2[C@H](/C=C(/C#N)OC)C2(C)C)C1=O [comparative compound (2), 2,5-dioxo-3-(2-propynyl)imidazolidinylmethyl=(1R)-cis-3-((Z)-2-cyano-2-methoxyethenyl)-2,2-dimethylcyclopropane carboxylate, reference compound]			42%			
C#CCN1CC(=O)N(COC(=O)[C@@H]2[C@@H](C=C(C#N)SCCC)C2(C)C)C1=O [compound of the present invention (3), 2,5-dioxo-3-(2-propynyl)imidazolidinylmethyl=(1R)-trans-3-[(1EZ)-2-cyano-2-(propylthio)ethenyl]-2,2-dimethylcyclopropane carboxylate]			100%	100%	100%	
C#CCN1CC(=O)N(COC(=O)[C@@H]2[C@@H](/C=C(\C#N)SC)C2(C)C)C1=O [compound of the present invention (4), 2,5-dioxo-3-(2-propynyl)imidazolidinylmethyl=(1R)-trans-3-[(1E)-2-cyano-2-(methylthio)ethenyl]-2,2-dimethylcyclopropane carboxylate]			100%	100%	100%	100%
C#CCN1CC(=O)N(COC(=O)[C@@H]2[C@@H](C=C(C#N)SCCCC)C2(C)C)C1=O [compound of the present invention (5), 2,5-dioxo-3-(2-propynyl)imidazolidinylmethyl=(1R)-trans-3-[(1EZ)-2-cyano-2-(butylthio)ethenyl]-2,2-dimethylcyclopropane carboxylate]			83%	100%	100%	
C#CCN1CC(=O)N(COC(=O)[C@@H]2[C@@H](C=C(C#N)SC(C)C)C2(C)C)C1=O [compound of the present invention (6), 2,5-dioxo-3-(2-propynyl)imidazolidinylmethyl=(1R)-trans-3-[(1EZ)-2-cyano-2-(isopropylthio)ethenyl]-2,2-dimethylcyclopropane carboxylate]			92%	100%	100%	
C#CCN1CC(=O)N(COC(=O)[C@@H]2[C@@H](/C=C(\C#N)SCC)C2(C)C)C1=O [compound of the present invention (13), 2,5-dioxo-3-(2-propynyl)imidazolidinylmethyl=(1R)-trans-3-[(1E)-2-cyano-2-(ethylthio)ethenyl]-2,2-dimethylcyclopropane carboxylate]	100%	100%		100%	100%	
